The numbers were not newly measured in patent US7851190B2, “Biosynthetic gene cluster for leptomycins” (priority 2003, dated 2010), which cites them from elsewhere.

The subject of data set [1] is HIV-1 Rev. The note with it: in vitro; FIG. 2.
In data set [2] the test system is adriamycin, amsacrine and mitoxantrone resistant P388 leukemia, other leukemias, B16 melanoma, Ridgway osteogenic and M5076 sarcomas and mammary adenocarinoma.

Take `CCOC(=O)/C=C\n1ncnc1-c1cc(Cl)ccc1N` [PKF050-638]: the “difference in activity between a Rev-dependent assay and cytotoxicity to the same cells” value in data set [1] is recorded as 75 fold.

For `CCC(=C/[C@H](C)C/C=C/C(C)=C/[C@@H](C)C(=O)[C@@H](C)[C@H](O)[C@@H](C)C/C(C)=C/C(=O)O)/C=C/[C@@H]1OC(=O)C=C[C@@H]1C` [LMB, Leptomycin B], the “difference in activity between a Rev-dependent assay and cytotoxicity to the same cells” value in data set [1] is given as “approx. 250 fold”. For the same compound, the acute toxicity result in data set [2] (exacerbated upon more frequent or oral administration) is recorded as “gastrointestinal”. Besides, the antitumor activity result in data set [2] (mouse murine and xenograph cancer models, low doses) is on record as “Activity was observed at low doses”.
